7 compounds from PMC10170162, “Identification of a new gibberellin receptor agonist, diphegaractin, by a cell-free chemical screening system” (Communications Biology, 2023) can be followed below.

Holding throughout (assay): AlphaScreen GID1-DELLA interaction
Holding throughout (format): biochemical
(In general: Bead proximity is the source of the signal in Alpha formats.)

One assay has as its target T1, VvGID1a (with VvDELLA2) (Vitis vinifera, UniProt A5BRG2).
T1 construct: C-terminal biotinylated GID1 and C-terminal FLAG-tagged DELLA, wheat germ cell-free synthesis, unpurified; also tested with VvDELLA1 and VvDELLA3; with DELLA protein
T1 sequence (A5BRG2 1-344): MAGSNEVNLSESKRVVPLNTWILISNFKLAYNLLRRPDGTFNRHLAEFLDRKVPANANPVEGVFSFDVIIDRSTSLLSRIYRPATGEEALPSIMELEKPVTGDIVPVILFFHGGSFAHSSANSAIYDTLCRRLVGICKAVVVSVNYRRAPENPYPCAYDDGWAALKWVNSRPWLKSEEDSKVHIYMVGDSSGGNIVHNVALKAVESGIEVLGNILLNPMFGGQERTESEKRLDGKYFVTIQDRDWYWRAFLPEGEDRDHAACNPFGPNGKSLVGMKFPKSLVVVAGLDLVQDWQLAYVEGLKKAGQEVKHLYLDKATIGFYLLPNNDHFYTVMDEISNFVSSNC
T1 sequence (F6HH58 1-532 partner): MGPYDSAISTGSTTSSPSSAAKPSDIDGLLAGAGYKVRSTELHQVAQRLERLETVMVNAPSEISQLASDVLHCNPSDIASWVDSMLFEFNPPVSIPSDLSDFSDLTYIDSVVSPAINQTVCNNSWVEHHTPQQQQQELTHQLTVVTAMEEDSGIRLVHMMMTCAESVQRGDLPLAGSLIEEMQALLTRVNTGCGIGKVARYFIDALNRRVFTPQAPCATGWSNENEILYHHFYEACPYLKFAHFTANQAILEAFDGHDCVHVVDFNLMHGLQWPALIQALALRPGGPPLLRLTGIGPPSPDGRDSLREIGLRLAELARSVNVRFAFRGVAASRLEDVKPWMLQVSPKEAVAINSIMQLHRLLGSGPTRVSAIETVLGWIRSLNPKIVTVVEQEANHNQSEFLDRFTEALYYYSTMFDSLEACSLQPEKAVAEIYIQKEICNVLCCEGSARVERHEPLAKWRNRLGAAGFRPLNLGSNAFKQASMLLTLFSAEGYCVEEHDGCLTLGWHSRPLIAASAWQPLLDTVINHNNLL
The following applies: agonist; partner VvDELLA2 (also VvDELLA1, VvDELLA3); dose series; pH 8.0, 26 °C; unpurified cell-free proteins.

The target in the next assay is T2, VvGID1b (with VvDELLA2) (Vitis vinifera, UniProt F6HQ36).
T2 construct: C-terminal biotinylated GID1 and C-terminal FLAG-tagged DELLA, wheat germ cell-free synthesis, unpurified; cDNA from grape leaf mRNA; with DELLA protein
T2 sequence (F6HQ36 1-344): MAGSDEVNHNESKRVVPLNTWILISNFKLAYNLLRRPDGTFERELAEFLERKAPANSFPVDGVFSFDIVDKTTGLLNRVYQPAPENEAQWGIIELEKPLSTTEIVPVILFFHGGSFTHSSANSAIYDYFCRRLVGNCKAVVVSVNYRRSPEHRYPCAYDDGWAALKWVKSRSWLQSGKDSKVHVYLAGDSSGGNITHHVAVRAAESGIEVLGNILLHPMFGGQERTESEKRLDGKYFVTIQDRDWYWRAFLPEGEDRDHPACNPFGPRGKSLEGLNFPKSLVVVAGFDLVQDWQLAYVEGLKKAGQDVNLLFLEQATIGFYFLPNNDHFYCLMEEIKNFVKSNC
T2 sequence (F6HH58 1-532 partner): T1 sequence (F6HH58 1-532 partner)
The following applies: agonist; partner VvDELLA2 (also VvDELLA1); dose series; pH 8.0, 26 °C; unpurified cell-free proteins.

The target of a further assay is T3, OsGID1 (with OsSLR) (Oryza sativa, UniProt Q6L545, V326I/L330F).
T3 construct: gene GID1; C-terminal biotinylated GID1 and C-terminal FLAG-tagged DELLA, wheat germ cell-free synthesis, unpurified; with DELLA protein SLR1
T3 sequence (Q6L545 1-354 V326I/L330F): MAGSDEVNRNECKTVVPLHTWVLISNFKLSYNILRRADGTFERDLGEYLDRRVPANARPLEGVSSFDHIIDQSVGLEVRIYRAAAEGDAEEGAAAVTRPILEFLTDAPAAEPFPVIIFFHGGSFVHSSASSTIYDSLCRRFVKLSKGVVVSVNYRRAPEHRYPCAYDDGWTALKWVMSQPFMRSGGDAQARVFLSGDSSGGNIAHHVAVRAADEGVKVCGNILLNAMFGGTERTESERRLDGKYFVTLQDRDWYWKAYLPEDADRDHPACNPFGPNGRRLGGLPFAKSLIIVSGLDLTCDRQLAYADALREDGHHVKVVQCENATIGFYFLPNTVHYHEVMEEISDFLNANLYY
T3 sequence (Q7G7J6 1-625 partner): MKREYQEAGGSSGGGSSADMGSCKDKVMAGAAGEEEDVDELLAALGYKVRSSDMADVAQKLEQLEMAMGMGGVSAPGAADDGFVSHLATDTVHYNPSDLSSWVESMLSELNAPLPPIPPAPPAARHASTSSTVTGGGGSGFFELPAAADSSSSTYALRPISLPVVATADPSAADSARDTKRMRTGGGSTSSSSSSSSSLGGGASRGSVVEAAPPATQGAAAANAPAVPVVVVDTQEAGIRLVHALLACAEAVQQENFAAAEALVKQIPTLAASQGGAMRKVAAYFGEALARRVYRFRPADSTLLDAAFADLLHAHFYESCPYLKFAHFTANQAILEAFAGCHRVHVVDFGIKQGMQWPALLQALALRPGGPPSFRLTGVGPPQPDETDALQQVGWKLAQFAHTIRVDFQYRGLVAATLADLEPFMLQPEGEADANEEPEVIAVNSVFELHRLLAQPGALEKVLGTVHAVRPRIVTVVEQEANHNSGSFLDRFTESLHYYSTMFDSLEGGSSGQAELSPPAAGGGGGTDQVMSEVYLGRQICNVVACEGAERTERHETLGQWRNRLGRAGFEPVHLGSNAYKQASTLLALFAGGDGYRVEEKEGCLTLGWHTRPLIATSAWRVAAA
The following applies: agonist; partner OsSLR; pH 8.0, 26 °C; unpurified cell-free proteins.

In the next assay the target is T4, AtGID1c (with AtRGA) (Arabidopsis thaliana, UniProt Q940G6).
T4 construct: gene GID1C; C-terminal biotinylated GID1 and C-terminal FLAG-tagged DELLA, wheat germ cell-free synthesis, unpurified; also tested with AtGAI; with DELLA protein RGA
T4 sequence (Q940G6 2-344): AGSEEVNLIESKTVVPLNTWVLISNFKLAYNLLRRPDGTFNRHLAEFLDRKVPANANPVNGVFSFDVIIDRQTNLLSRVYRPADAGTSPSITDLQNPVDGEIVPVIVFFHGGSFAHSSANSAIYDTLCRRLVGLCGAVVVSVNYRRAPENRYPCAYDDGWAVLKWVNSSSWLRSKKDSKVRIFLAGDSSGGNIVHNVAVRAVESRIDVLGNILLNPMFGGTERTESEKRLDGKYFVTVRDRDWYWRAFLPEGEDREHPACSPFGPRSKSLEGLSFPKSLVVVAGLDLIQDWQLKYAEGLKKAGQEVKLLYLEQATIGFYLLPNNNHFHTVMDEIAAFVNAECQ
T4 sequence (Q9SLH3 1-587 partner): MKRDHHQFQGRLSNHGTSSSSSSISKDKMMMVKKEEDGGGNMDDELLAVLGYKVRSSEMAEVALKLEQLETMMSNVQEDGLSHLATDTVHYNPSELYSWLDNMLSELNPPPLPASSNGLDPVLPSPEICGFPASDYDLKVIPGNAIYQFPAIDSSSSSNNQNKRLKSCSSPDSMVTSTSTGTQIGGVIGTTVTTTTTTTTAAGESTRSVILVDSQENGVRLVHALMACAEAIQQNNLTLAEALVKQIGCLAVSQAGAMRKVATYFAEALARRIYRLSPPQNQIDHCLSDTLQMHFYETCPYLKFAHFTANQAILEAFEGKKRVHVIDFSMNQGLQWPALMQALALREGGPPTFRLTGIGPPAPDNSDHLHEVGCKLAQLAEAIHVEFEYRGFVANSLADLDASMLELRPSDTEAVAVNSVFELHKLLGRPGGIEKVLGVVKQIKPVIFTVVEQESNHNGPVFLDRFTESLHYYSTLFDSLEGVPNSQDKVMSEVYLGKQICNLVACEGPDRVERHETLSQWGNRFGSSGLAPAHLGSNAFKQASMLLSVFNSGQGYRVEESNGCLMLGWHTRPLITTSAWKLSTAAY
The following applies: agonist; partner AtRGA (also AtGAI); pH 8.0, 26 °C; unpurified cell-free proteins.

In a further assay the target is T5, AtGID1b (with AtRGA) (Arabidopsis thaliana, UniProt Q9LYC1).
T5 construct: gene GID1B; C-terminal biotinylated GID1 and C-terminal FLAG-tagged DELLA, wheat germ cell-free synthesis, unpurified; with DELLA protein RGA
T5 sequence (Q9LYC1 2-358): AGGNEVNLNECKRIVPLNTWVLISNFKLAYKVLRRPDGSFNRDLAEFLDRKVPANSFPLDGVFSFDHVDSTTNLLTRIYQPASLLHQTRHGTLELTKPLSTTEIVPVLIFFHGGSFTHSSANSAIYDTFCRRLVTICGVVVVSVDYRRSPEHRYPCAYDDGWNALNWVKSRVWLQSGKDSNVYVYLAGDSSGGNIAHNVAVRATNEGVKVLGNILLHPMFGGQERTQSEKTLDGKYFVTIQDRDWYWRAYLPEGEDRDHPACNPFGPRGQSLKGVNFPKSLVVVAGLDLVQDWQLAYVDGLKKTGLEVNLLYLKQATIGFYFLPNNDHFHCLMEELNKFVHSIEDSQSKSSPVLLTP
T5 sequence (Q9SLH3 1-587 partner): T4 sequence (Q9SLH3 1-587 partner)
The settings on record: agonist; partner AtRGA; pH 8.0, 26 °C; unpurified cell-free proteins.

As for `C=C1C[C@]23C[C@@]1(O)CC[C@H]2[C@@]12CC[C@H](O)[C@@](C)(C(=O)O1)[C@H]2[C@@H]3C(=O)O` [GA1], the “AlphaScreen GID1-DELLA interaction” value is “VvGID1a exhibited GA-dependent interactions with VvDELLA1-3” at VvGID1a (with VvDELLA2); “VvGID1b also exhibited active and inactive GA-dependent interactions with VvDELLA1 and VvDELLA2” at VvGID1b (with VvDELLA2).
Take `C=C1C[C@]23C[C@@]1(O)CC[C@H]2[C@@]12C=C[C@H](O)[C@@](C)(C(=O)O1)[C@H]2[C@@H]3C(=O)O` [GA3]: the “AlphaScreen GID1-DELLA interaction” value was “swapping had little effect on the interaction between DELLA proteins and GA receptors by GA3” on OsGID1 (with OsSLR); “VvGID1a exhibited GA-dependent interactions with VvDELLA1-3” at VvGID1a (with VvDELLA2); “VvGID1b also exhibited active and inactive GA-dependent interactions with VvDELLA1 and VvDELLA2” at VvGID1b (with VvDELLA2).
Consider `C=C1C[C@]23C[C@H]1CC[C@H]2[C@@]12CC[C@H](O)[C@@](C)(C(=O)O1)[C@H]2[C@@H]3C(=O)O` [GA4], for which the “AlphaScreen GID1-DELLA interaction” value on VvGID1a (with VvDELLA2) is “VvGID1a exhibited GA-dependent interactions with VvDELLA1-3”; at VvGID1b (with VvDELLA2), “VvGID1b also exhibited active and inactive GA-dependent interactions with VvDELLA1 and VvDELLA2”.
As for `C=C1C[C@]23C[C@H]1CC[C@H]2[C@@]12C=C[C@H](O)[C@@](C)(C(=O)O1)[C@H]2[C@@H]3C(=O)O` [GA7], the “AlphaScreen GID1-DELLA interaction” value is “VvGID1a exhibited GA-dependent interactions with VvDELLA1-3” at VvGID1a (with VvDELLA2); “VvGID1b also exhibited active and inactive GA-dependent interactions with VvDELLA1 and VvDELLA2” on VvGID1b (with VvDELLA2).
Take `C=C1C[C@]23C[C@H]1CC[C@H]2[C@@]12CCC[C@@](C)(C(=O)O1)[C@H]2[C@@H]3C(=O)O` [GA9]: the “AlphaScreen GID1-DELLA interaction” value at VvGID1a (with VvDELLA2) was “Although a much higher concentration was required, inactive GAs also induced these interactions”.
With `C=C1C[C@]23C[C@@]1(O)CC[C@H]2[C@@]12CCC[C@@](C)(C(=O)O1)[C@H]2[C@@H]3C(=O)O` [GA20], the “AlphaScreen GID1-DELLA interaction” value at VvGID1a (with VvDELLA2) was “Although a much higher concentration was required, inactive GAs also induced these interactions”.
In the case of `CCCCCC(C(=O)O)(c1ccccc1)c1ccccc1` [diphegaractin, 2,2-diphenylheptanoic acid], the “AlphaScreen GID1-DELLA interaction” value on OsGID1 (with OsSLR) is “OsGID1 V326I/L330F mutant increased the interaction with OsSLR by diphegaractin”; on AtGID1c (with AtRGA), “AtGID1c with AtRGA and AtGAI”; on VvGID1b (with VvDELLA2) it was “diphegaractin induced two interactions, VvGID1b–VvDELLA1 and VvGID1b–VvDELLA2”; on AtGID1b (with AtRGA), “it promoted the interaction of AtGID1b with AtRGA”.
